Test results as given in patent US11466025B2, “Thienopyridine derivatives containing unsaturated aliphatic olefinic bond, preparation method and use thereof” (Tianjin Institute of Pharmaceutical Research Co., Ltd., priority 2017, dated 2022).
Read-outs that look alike come from different tables or passages of the source.

Assays:
[1] = system: platelet aggregation induced by ADP; experiment: Test of inhibitory effect of compounds on platelet aggregation in rats (ex vivo, ADP-induced, after intragastric administration); set-up: species or system SD rats; settings: for ED50: Rattus norvegicus; for Inhibition rate (%): platelet aggregation, control = 100%; for Aggregation rate (%): 2 h after administration, ADP 20 uM
Experimental: Test of Inhibitory Effect of Compounds on Platelet Aggregation in Rats Healthy male SD rats were selected and randomly divided into solvent control group, positive drug control group and test compound group. Intragastric administration was carried out, with the administration volume being 10 ml/kg˜bw. […] The platelet count was adjusted to 5×10^8 cells/ml with PPP.

[2] = 1 μM
Experimental: Plasma samples (double sample) containing 1 μM of the compounds of the present invention, clopidogrel hydrogen sulfate (LBGL), 2-oxo product (2-Oxo) were prepared from human blank plasma, and incubated at 37° C. 50 μL of the above incubated plasma samples were taken at different time points, and 100 μL of precipitant (acetonitrile:methanol=7:3) and 50 μL of internal standard were added. The mixture was vortexed for 1 min and centrifuged for 10 min. 100 μL of the supernatant was taken into an inner inserted tube, centrifuged for 5 min, and injected for LC-MS/MS analysis.
Preparation of blank control sample (PPT-0): 100 μL of frozen human blank plasma was taken, to which 195 μL of acetonitrile and 100 μL of internal standard were added, followed by 5 μL of the compound of the present invention, clopidogrel or 2-oxo product (20 μM). The mixture was vortexed for 1 min and centrifuged for 10 min. 100 μL of the supernatant was taken into an inner inserted tube, centrifuged for 5 min, and injected for LC-MS/MS analysis.

[3] = system: bleeding time of amputated tail in rats; experiment: Test of hemorrhagic side effects: bleeding time of amputated tail in rats; format: in vivo, SD rats; settings: intragastric, tail cut 1 h after administration, linear equation fitted
Experimental: Test of Hemorrhagic Side Effects:
1 h after administration, the rats were anesthetized by intraperitoneal injection of 20% urethane (1 g/kg), and the tail was cut off 5 mm from the tip of the tail, which was then placed in a test tube containing 5 ml normal saline at 37° C. The time from tail cut to cease of bleeding was recorded as the bleeding time. The increasing rate of bleeding time in each dose group was calculated, with the bleeding time of the rats in the control group being 100%.

[4] = Stability of crystalline form A of I-1 (X-ray powder diffraction after high temperature, high humidity, light); format: physicochemical

C/C=C/C(=O)Oc1cc2c(s1)CCN([C@H](C(=O)OC)c1ccccc1Cl)C2 [Compound I-1, Methyl (S,E)-2-(2-chlorophenyl)-2-(2-(2-butenoyloxy)-6,7-dihydrothieno[3,2-c]pyridin-5(4H)-yl)-acetate]
ED50 ([1]; Platelet, po): 1 mg/kg
Inhibition rate (%) ([1]; rats, intragastric 0.5 mg/kg): 22.4%
Inhibition rate (%) ([1]; rats, intragastric 1 mg/kg): 50.2%
Inhibition rate (%) ([1]; rats, intragastric 2 mg/kg): 77.0%
Aggregation rate (%) ([1]; rats, intragastric 0.5 mg/kg): 46.6 ± 8.1%
Aggregation rate (%) ([1]; rats, intragastric 1 mg/kg): 29.9 ± 8.7 %
Aggregation rate (%) ([1]; rats, intragastric 2 mg/kg): 13.8 ± 11.7 %
2-Oxo metabolite concentration in human plasma ([2]; 0 min): 0.0412 µM
2-Oxo metabolite in human plasma, % ([2]; 0 min): 4.34%
Concentration of incubated compound in human plasma ([2]; 0 min): 0.950 µM
Incubated compound in human plasma, % ([2]; 0 min): 100%
Generation of 2-oxo (2-Oxo) product in human plasma [2]: rapidly generate 2-oxo products
2-Oxo metabolite concentration in human plasma ([2]; 5 min): 0.0807 µM
2-Oxo metabolite in human plasma, % ([2]; 5 min): 8.49%
Concentration of incubated compound in human plasma ([2]; 5 min): 0.872 µM
Incubated compound in human plasma, % ([2]; 5 min): 91.7%
2-Oxo metabolite concentration in human plasma ([2]; 10 min): 0.143 µM
2-Oxo metabolite in human plasma, % ([2]; 10 min): 15.1%
Concentration of incubated compound in human plasma ([2]; 10 min): 0.782 µM
Incubated compound in human plasma, % ([2]; 10 min): 82.3%
2-Oxo metabolite concentration in human plasma ([2]; 20 min): 0.195 µM
2-Oxo metabolite in human plasma, % ([2]; 20 min): 20.5%
Concentration of incubated compound in human plasma ([2]; 20 min): 0.575 µM
Incubated compound in human plasma, % ([2]; 20 min): 60.5%
2-Oxo metabolite concentration in human plasma ([2]; 30 min): 0.198 µM
2-Oxo metabolite in human plasma, % ([2]; 30 min): 20.8%
Concentration of incubated compound in human plasma ([2]; 30 min): 0.425 µM
Incubated compound in human plasma, % ([2]; 30 min): 44.7%
2-Oxo metabolite concentration in human plasma ([2]; 45 min): 0.167 µM
2-Oxo metabolite in human plasma, % ([2]; 45 min): 17.5%
Concentration of incubated compound in human plasma ([2]; 45 min): 0.266 µM
Incubated compound in human plasma, % ([2]; 45 min): 28.0%
2-Oxo metabolite concentration in human plasma ([2]; 60 min): 0.130 µM
2-Oxo metabolite in human plasma, % ([2]; 60 min): 13.6%
Concentration of incubated compound in human plasma ([2]; 60 min): 0.174 µM
Incubated compound in human plasma, % ([2]; 60 min): 18.3%
2-Oxo metabolite concentration in human plasma ([2]; 90 min): 0.0535 µM
2-Oxo metabolite in human plasma, % ([2]; 90 min): 5.63%
Concentration of incubated compound in human plasma ([2]; 90 min): 0.0522 µM
Incubated compound in human plasma, % ([2]; 90 min): 5.49%
2-Oxo metabolite concentration in human plasma ([2]; 120 min): 0.0224 µM
2-Oxo metabolite in human plasma, % ([2]; 120 min): 2.35%
Concentration of incubated compound in human plasma ([2]; 120 min): 0.0162 µM
Incubated compound in human plasma, % ([2]; 120 min): 1.70%
2-Oxo metabolite concentration in human plasma ([2]; 150 min): 0.00857 µM
2-Oxo metabolite in human plasma, % ([2]; 150 min): 0.902%
Concentration of incubated compound in human plasma ([2]; 150 min): 0.00531 µM
Incubated compound in human plasma, % ([2]; 150 min): 0.558%
2-Oxo metabolite concentration in human plasma ([2]; 180 min): 0.00397 µM
2-Oxo metabolite in human plasma, % ([2]; 180 min): 0.418%
Concentration of incubated compound in human plasma ([2]; 180 min): 0.00219 µM
Incubated compound in human plasma, % ([2]; 180 min): 0.231%
2-Oxo metabolite concentration in human plasma ([2]; 240 min): 0 µM
2-Oxo metabolite in human plasma, % ([2]; 240 min): 0%
Concentration of incubated compound in human plasma ([2]; 240 min): 0 µM
Incubated compound in human plasma, % ([2]; 240 min): 0%
2-Oxo metabolite concentration in human plasma ([2]; 300 min): 0 µM
2-Oxo metabolite in human plasma, % ([2]; 300 min): 0%
Concentration of incubated compound in human plasma ([2]; 300 min): 0 µM
Incubated compound in human plasma, % ([2]; 300 min): 0%
2-Oxo metabolite concentration in human plasma ([2]; 360 min): 0 µM
2-Oxo metabolite in human plasma, % ([2]; 360 min): 0%
Concentration of incubated compound in human plasma ([2]; 360 min): 0 µM
Incubated compound in human plasma, % ([2]; 360 min): 0%
ED200 (dose that doubled the bleeding time) [3]: 1.977 mg/kg
Crystalline form ([4]; crystalline form A of I-1, 0 day): Crystalline form A
Crystalline form ([4]; crystalline form A of I-1, 5 days, High humidity (RH 92.5%)): Crystalline form A
Crystalline form ([4]; crystalline form A of I-1, 5 days, High temperature (60° C.)): Crystalline form A
Crystalline form ([4]; crystalline form A of I-1, 5 days, Light (5000 ± 5000 Lx)): Crystalline form A
Crystalline form ([4]; crystalline form A of I-1, 10 days, High humidity (RH 92.5%)): Crystalline form A
Crystalline form ([4]; crystalline form A of I-1, 10 days, High temperature (60° C.)): Crystalline form A
Crystalline form ([4]; crystalline form A of I-1, 10 days, Light (5000 ± 500 Lx)): Crystalline form A
Crystalline form ([4]; crystalline form A of I-1, 30 days, High humidity (RH 92.5%)): Crystalline form A
Crystalline form ([4]; crystalline form A of I-1, 30 days, High temperature (60° C.)): Crystalline form A
Crystalline form ([4]; crystalline form A of I-1, 30 days, Light (5000 ± 500 Lx)): Crystalline form A
Change of the crystalline form by X-ray powder diffraction ([4]; crystalline form A of I-1, high temperature, high humidity and light for 5, 10 and 30 days): has not changed

C/C=C/C=C/C(=O)Oc1cc2c(s1)CCN([C@H](C(=O)OC)c1ccccc1Cl)C2 [Compound I-2, Methyl (S)-2-(2-chlorophenyl)-2-(2-((2E,4E)-2,4-hexadienoyloxy)-6,7-dihydrothieno[3,2-c]pyridin-5(4H)-yl)-acetate]
ED50 ([1]; inhibition of ADP-induced platelet aggregation, rats, oral administration, read-out: ED50): 1.58 mg/kg
Inhibition rate (%) ([1]; rats, intragastric 0.75 mg/kg): 7.0%
Inhibition rate (%) ([1]; rats, intragastric 1.5 mg/kg): 50.8%
Inhibition rate (%) ([1]; rats, intragastric 3 mg/kg): 85.8%
Aggregation rate (%) ([1]; rats, intragastric 0.75 mg/kg): 55.8 ± 13.9%
Aggregation rate (%) ([1]; rats, intragastric 1.5 mg/kg): 29.6 ± 8.7 %
Aggregation rate (%) ([1]; rats, intragastric 3 mg/kg): 8.5 ± 9.4 %
2-Oxo metabolite concentration in human plasma ([2]; 0 min): 0.0192 µM
2-Oxo metabolite in human plasma, % ([2]; 0 min): 1.74%
Concentration of incubated compound in human plasma ([2]; 0 min): 1.11 µM
Incubated compound in human plasma, % ([2]; 0 min): 100%
Generation of 2-oxo (2-Oxo) product in human plasma [2]: rapidly generate 2-oxo products
2-Oxo metabolite concentration in human plasma ([2]; 5 min): 0.0246 µM
2-Oxo metabolite in human plasma, % ([2]; 5 min): 2.23%
Concentration of incubated compound in human plasma ([2]; 5 min): 1.03 µM
Incubated compound in human plasma, % ([2]; 5 min): 93.5%
2-Oxo metabolite concentration in human plasma ([2]; 10 min): 0.0319 µM
2-Oxo metabolite in human plasma, % ([2]; 10 min): 2.89%
Concentration of incubated compound in human plasma ([2]; 10 min): 1.03 µM
Incubated compound in human plasma, % ([2]; 10 min): 92.8%
2-Oxo metabolite concentration in human plasma ([2]; 20 min): 0.0449 µM
2-Oxo metabolite in human plasma, % ([2]; 20 min): 4.06%
Concentration of incubated compound in human plasma ([2]; 20 min): 1.07 µM
Incubated compound in human plasma, % ([2]; 20 min): 97.1%
2-Oxo metabolite concentration in human plasma ([2]; 30 min): 0.0493 µM
2-Oxo metabolite in human plasma, % ([2]; 30 min): 4.46%
Concentration of incubated compound in human plasma ([2]; 30 min): 0.957 µM
Incubated compound in human plasma, % ([2]; 30 min): 86.6%
2-Oxo metabolite concentration in human plasma ([2]; 45 min): 0.0522 µM
2-Oxo metabolite in human plasma, % ([2]; 45 min): 4.72%
Concentration of incubated compound in human plasma ([2]; 45 min): 0.927 µM
Incubated compound in human plasma, % ([2]; 45 min): 83.9%
2-Oxo metabolite concentration in human plasma ([2]; 60 min): 0.0521 µM
2-Oxo metabolite in human plasma, % ([2]; 60 min): 4.71%
Concentration of incubated compound in human plasma ([2]; 60 min): 0.849 µM
Incubated compound in human plasma, % ([2]; 60 min): 76.8%
2-Oxo metabolite concentration in human plasma ([2]; 90 min): 0.0481 µM
2-Oxo metabolite in human plasma, % ([2]; 90 min): 4.35%
Concentration of incubated compound in human plasma ([2]; 90 min): 0.705 µM
Incubated compound in human plasma, % ([2]; 90 min): 63.8%
2-Oxo metabolite concentration in human plasma ([2]; 120 min): 0.0457 µM
2-Oxo metabolite in human plasma, % ([2]; 120 min): 4.14%
Concentration of incubated compound in human plasma ([2]; 120 min): 0.695 µM
Incubated compound in human plasma, % ([2]; 120 min): 62.9%
2-Oxo metabolite concentration in human plasma ([2]; 150 min): 0.0445 µM
2-Oxo metabolite in human plasma, % ([2]; 150 min): 4.03%
Concentration of incubated compound in human plasma ([2]; 150 min): 0.516 µM
Incubated compound in human plasma, % ([2]; 150 min): 46.7%
2-Oxo metabolite concentration in human plasma ([2]; 180 min): 0.0388 µM
2-Oxo metabolite in human plasma, % ([2]; 180 min): 3.51%
Concentration of incubated compound in human plasma ([2]; 180 min): 0.475 µM
Incubated compound in human plasma, % ([2]; 180 min): 43.0%
2-Oxo metabolite concentration in human plasma ([2]; 240 min): 0.0331 µM
2-Oxo metabolite in human plasma, % ([2]; 240 min): 3.00%
Concentration of incubated compound in human plasma ([2]; 240 min): 0.332 µM
Incubated compound in human plasma, % ([2]; 240 min): 30.0%
2-Oxo metabolite concentration in human plasma ([2]; 300 min): 0.0294 µM
2-Oxo metabolite in human plasma, % ([2]; 300 min): 2.66%
Concentration of incubated compound in human plasma ([2]; 300 min): 0.231 µM
Incubated compound in human plasma, % ([2]; 300 min): 20.9%
2-Oxo metabolite concentration in human plasma ([2]; 360 min): 0.0236 µM
2-Oxo metabolite in human plasma, % ([2]; 360 min): 2.14%
Concentration of incubated compound in human plasma ([2]; 360 min): 0.164 µM
Incubated compound in human plasma, % ([2]; 360 min): 14.8%
